Results as given in PubChem BioAssay AID212 (DTP/NCI, 2004).
“And” between values parts separate entries of the source, which are not always exact repeats. Equal entries are not always repeated. Inconclusive results are not listed.

System: BDF1 mice, colon carcinoma 38 sc, T/C %
Test: NCI In Vivo Anticancer Drug Screen. Data for tumor model Colon Carcinoma 38 (subcutaneous) in B6D2F1 (BDF1) mice
Conditions: endpoint: median tumor weight (est.), higher = larger tumour
Summary of the method: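 T/C readout: treated group (T) measurement over vehicle control group (C) measurement. Endpoint is survival or tumor size in mice bearing a transplanted tumor.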

## CCN(CC)CCNc1ccc(CO)c2sc3ccccc3c(=O)c12
dose: 6.25 mg/kg/injection, schedule: Q07DX003 (ip), vehicle: clinical formulation
  T/C: 120 % of control
dose: 6.25 mg/kg/injection, schedule: Q07DX003 (ip), vehicle: water
  T/C: 90 % of control
dose: 12.5 mg/kg/injection, schedule: Q07DX003 (ip), vehicle: clinical formulation
  T/C: 116 % of control
dose: 12.5 mg/kg/injection, schedule: Q07DX003 (ip), vehicle: water
  T/C: 103 % of control
dose: 25.0 mg/kg/injection, schedule: Q07DX003 (ip), vehicle: clinical formulation
  T/C: 77 % of control
dose: 25.0 mg/kg/injection, schedule: Q07DX003 (ip), vehicle: water
  T/C: 114 % of control
dose: 50.0 mg/kg/injection, schedule: Q07DX003 (ip), vehicle: clinical formulation
  T/C: 63 % of control
dose: 50.0 mg/kg/injection, schedule: Q07DX003 (ip), vehicle: water
  T/C: 30 % of control
dose: 100.0 mg/kg/injection, schedule: Q07DX003 (ip), vehicle: clinical formulation
  T/C: 14 % of control
dose: 100.0 mg/kg/injection, schedule: Q07DX003 (ip), vehicle: water
  T/C: 11 % of control

## C=C1C(=O)O[C@H]2/C=C(/C)C3=CC(=O)[C@@](C)(C[C@@H](OC(=O)/C(C)=C\C)C12)O3 (some centres not stated)
dose: 3.12 mg/kg/injection, schedule: Q07DX002 (ip), vehicle: Klucel (hydroxypropylcellulose) (HPC)
  T/C: 63 % of control
dose: 6.25 mg/kg/injection, schedule: Q07DX002 (ip), vehicle: Klucel (hydroxypropylcellulose) (HPC)
  T/C: 95 % of control
dose: 12.5 mg/kg/injection, schedule: Q07DX002 (ip), vehicle: Klucel (hydroxypropylcellulose) (HPC)
  T/C: 58 % of control
dose: 25.0 mg/kg/injection, schedule: Q07DX002 (ip), vehicle: Klucel (hydroxypropylcellulose) (HPC)
  T/C: 79 % of control

## O=C1N[C@@H]([C@H]2CC[C@H](Cl)CN2)C(=O)N[C@H]1[C@H]1CC[C@H](Cl)CN1
dose: 0.31 mg/kg/injection, schedule: Q07DX003 (ip), vehicle: water
  T/C: 85 % of control
dose: 0.63 mg/kg/injection, schedule: Q07DX003 (ip), vehicle: water
  T/C: 110 % of control
dose: 1.25 mg/kg/injection, schedule: Q07DX003 (ip), vehicle: water
  T/C: 79 % of control
dose: 2.5 mg/kg/injection, schedule: Q07DX003 (ip), vehicle: water
  T/C: 70 % of control
dose: 5.0 mg/kg/injection, schedule: Q07DX003 (ip), vehicle: water
  T/C: 6 % of control

## Oc1c(Cl)cc(Cl)cc1C=NCCSc1ccc(Cl)cc1
dose: 50.0 mg/kg/injection, schedule: Q07DX002 (ip), vehicle: Klucel (hydroxypropylcellulose) (HPC)
  T/C: 85 % of control
dose: 100.0 mg/kg/injection, schedule: Q07DX002 (ip), vehicle: Klucel (hydroxypropylcellulose) (HPC)
  T/C: 78 % of control
dose: 200.0 mg/kg/injection, schedule: Q07DX002 (ip), vehicle: Klucel (hydroxypropylcellulose) (HPC)
  T/C: 162 % of control

## COc1cccc2c1C(=O)c1c(O)c3c(c(O)c1C2=O)C[C@@](O)(/C(CO)=N/NC(=O)c1ccc(Cl)c(Cl)c1)C[C@@H]3OC1CC(N)C(O)C(C)O1 (some centres not stated)
dose: 1.5 mg/kg/injection, schedule: Q07DX002 (ip), vehicle: saline
  T/C: 88 % of control
dose: 3.0 mg/kg/injection, schedule: Q07DX002 (ip), vehicle: saline
  T/C: 115 % of control
dose: 6.0 mg/kg/injection, schedule: Q07DX002 (ip), vehicle: saline
  T/C: 80 % of control
dose: 12.0 mg/kg/injection, schedule: Q07DX002 (ip), vehicle: saline
  T/C: 73 % of control
dose: 24.0 mg/kg/injection, schedule: Q07DX002 (ip), vehicle: saline
  T/C: 46 % of control
dose: 48.0 mg/kg/injection, schedule: Q07DX002 (ip), vehicle: saline
  T/C: 48 % of control

## Nc1n[n+](-c2ccc(Cl)cc2)no1
dose: 6.25 mg/kg/injection, schedule: Q07DX002 (ip), vehicle: water
  T/C: 64 % of control and 78 % of control
dose: 12.5 mg/kg/injection, schedule: Q07DX002 (ip), vehicle: water
  T/C: 85 % of control and 87 % of control
dose: 25.0 mg/kg/injection, schedule: Q07DX002 (ip), vehicle: water
  T/C: 57 % of control
dose: 50.0 mg/kg/injection, schedule: Q07DX002 (ip), vehicle: water
  T/C: 119 % of control

## OCCCN1CCCCC1CO (configuration not stated)
dose: 25.0 mg/kg/injection, schedule: Q07DX002 (ip), vehicle: saline
  T/C: 91 % of control
dose: 50.0 mg/kg/injection, schedule: Q07DX002 (ip), vehicle: saline
  T/C: 110 % of control
dose: 100.0 mg/kg/injection, schedule: Q07DX002 (ip), vehicle: saline
  T/C: 108 % of control
dose: 200.0 mg/kg/injection, schedule: Q07DX002 (ip), vehicle: saline
  T/C: 99 % of control
dose: 400.0 mg/kg/injection, schedule: Q07DX002 (ip), vehicle: saline
  T/C: 98 % of control
